“And” between values parts separate entries of the source, which are not always exact repeats. Equal entries are not always repeated.
Each molecule was assayed against T1, human muscarinic acetylcholine M3 receptor (M3-ACh) (Homo sapiens, UniProt P20309) (assay: biochemical). Conditions: pIC50 (M3 Binding IC50 classes).
T1 construct: expressed in transfected cells; host or cells: CHO-K1 (Chinese Hamster Ovary) cell membranes
Assay type: binding

T1 sequence (P20309 whole entry): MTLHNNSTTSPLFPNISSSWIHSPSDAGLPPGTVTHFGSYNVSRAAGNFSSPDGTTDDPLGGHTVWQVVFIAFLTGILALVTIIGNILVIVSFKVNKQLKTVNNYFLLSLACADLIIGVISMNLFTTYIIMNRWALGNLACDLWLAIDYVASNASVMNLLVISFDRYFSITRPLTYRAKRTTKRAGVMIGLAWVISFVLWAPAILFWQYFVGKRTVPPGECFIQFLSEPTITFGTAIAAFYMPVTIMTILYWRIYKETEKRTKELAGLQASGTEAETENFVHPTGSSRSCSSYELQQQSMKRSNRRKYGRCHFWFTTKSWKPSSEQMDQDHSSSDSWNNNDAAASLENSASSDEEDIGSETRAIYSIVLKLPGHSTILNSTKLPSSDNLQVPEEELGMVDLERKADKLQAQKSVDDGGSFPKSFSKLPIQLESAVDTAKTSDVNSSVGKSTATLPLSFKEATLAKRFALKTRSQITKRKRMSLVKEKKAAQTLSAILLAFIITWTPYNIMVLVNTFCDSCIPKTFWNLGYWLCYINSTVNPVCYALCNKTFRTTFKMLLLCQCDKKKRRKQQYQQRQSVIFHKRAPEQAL

| Structure (SMILES) | IC50 [nM] |
| --- | --- |
| C[C@@](C(=O)O[C@H]1C[N+]2(CC(=O)c3ccccc3)CCC1CC2)(c1ccccc1)N1CCCCC1 [Example 9, (3R)-l-(2-Oxo-2-phenylethyl)-3-{[(2S)-2-phenyl-2-piperidin-1-ylpropanoyl]oxy}-1-azoniabicyclo[2.2.2]octane bromide] | < 2 |
| C[C@@](C(=O)O[C@H]1C[N+]2(CC(=O)Nc3ccc(C#N)cc3)CCC1CC2)(c1ccccc1)N1CCCCC1 [Example 11, (3R)-1-{2-[(4-Cyanophenyl)amino]-2-oxoethyl}-3-{[(2S)-2-phenyl-2-piperidin-1-ylpropanoyl]oxy}-1-azoniabicyclo[2.2.2]octane chloride] | 2 to 10 |
| C[C@@](C(=O)O[C@H]1C[N+]2(CC(=O)Nc3ccc4[nH]ncc4c3)CCC1CC2)(c1ccccc1)N1CCCCC1 [Example 12, (3R)-1-[2-(1H-Indazol-5-ylamino)-2-oxoethyl]-3-{[(2S)-2-phenyl-2-piperidin-1-ylpropanoyl]oxy}-1-azoniabicyclo[2.2.2]octane chloride] | 2 to 10 |
| C[C@@](C(=O)O[C@H]1C[N+]2(CC(=O)Nc3ccc4ncnn4c3)CCC1CC2)(c1ccccc1)N1CCCCC1 [Example 13, (3R)-1-[2-Oxo-2-([1,2,4]triazolo[1,5-a]pyridin-6-ylamino)ethyl]-3-{[(2S)-2-phenyl-2-piperidin-1-ylpropanoyl]oxy}-1-azoniabicyclo[2.2.2]octane chloride] | < 2 |
| C[C@@](C(=O)O[C@H]1C[N+]2(CC(=O)NCc3ccccc3)CCC1CC2)(c1ccccc1)N1CCCCC1 [Example 16, (3R)-1-[2-(Benzylamino)-2-oxoethyl]-3-{[(2S)-2-phenyl-2-piperidin-1-ylpropanoyl]oxy}-1-azoniabicyclo[2.2.2]octane chloride] | 2 to 10 |
| Cc1ccc(C(=O)C[N+]23CCC(CC2)[C@@H](OC(=O)[C@](C)(c2ccccc2)N2CCCCC2)C3)cc1 [Example 17, (3R)-1-[2-(4-Methylphenyl)-2-oxoethyl]-3-{[(2S)-2-phenyl-2-piperidin-1-ylpropanoyl]oxy}-1-azoniabicyclo[2.2.2]octane bromide] | < 2 |
| Cc1nc(-c2ccccc2)c(NC(=O)C[N+]23CCC(CC2)[C@@H](OC(=O)[C@](C)(c2ccccc2)N2CCCCC2)C3)s1 [Example 18, (3R)-1-{2-[(2-Methyl-4-phenyl-1,3-thiazol-5-yl)amino]-2-oxoethyl}-3-{[(2S)-2-pheny1-2-piperidin-1-ylpropanoyl]oxy}-1-azoniabicyclo[2.2.2]octane chloride] | 2 to 10 |
| CCOC(=O)Cc1csc(NC(=O)C[N+]23CCC(CC2)[C@@H](OC(=O)[C@](C)(c2ccccc2)N2CCCCC2)C3)n1 [Example 19, (3R)-1-(2-{[4-(2-Ethoxy-2-oxoethyl)-1,3-thiazol-2-yl]amino}-2-oxoethyl)-3-{[(2S)-2-phenyl-2-piperidin-1-ylpropanoyl]oxy}-1-azoniabicyclo[2.2.2]octane chloride] | 2 to 10 |
| Cn1c(=O)oc2cc(CC[N+]34CCC(CC3)[C@@H](OC(=O)[C@](C)(c3ccccc3)N3CCCCC3)C4)ccc21 [Example 25, (3R)-1-[2-(3-Methyl-2-oxo-2,3-dihydro-1,3-benzoxazol-6-yl)ethyl]-3-{[(2S)-2-phenyl-2-piperidin-1-ylpropanoyl]oxy}-1-azoniabicyclo(2.2.2]octane bromide] | < 2 |
| C[C@@](C(=O)O[C@H]1C[N+]2(CCCS(=O)(=O)c3ccc(C#N)cc3)CCC1CC2)(c1ccccc1)N1CCCCC1 [Example 35, (3R)-1-{3-[(4-Cyanophenyl)sulfonyl]propyl}-3-{[(2S)-2-phenyl-2-piperidin-1-ylpropanoyl]oxy}-1-azoniabicyclo[2.2.2]octane bromide] | 2 to 10 |
| C[C@@](C(=O)O[C@H]1C[N+]2(CC[C@H](O)c3ccccc3)CCC1CC2)(c1ccccc1)N1CCCCC1 [Example 38] | < 2 |
| C[C@@](C(=O)O[C@H]1C[N+]2(CC[C@@H](O)c3ccccc3)CCC1CC2)(c1ccccc1)N1CCCCC1 [Example 39] | < 2 |
| Cc1nc(-c2ccc(OCC[N+]34CCC(CC3)[C@@H](OC(=O)[C@](C)(c3ccccc3)N3CCCCC3)C4)cc2)no1 [Example 43, (3R)-1-{2-[4-(5-Methyl-1,2,4-oxadiazol-3-yl)phenoxy]ethyl}-3-{[(2S)-2-phenyl-2-piperidin-1-ylpropanoyl]oxy}-1-azoniabicyclo[2.2.2]octane bromide] | 2 to 10 |
| CC(C(=O)O[C@H]1C[N+]2(Cc3nc(-c4ccccc4)no3)CCC1CC2)(c1cccs1)N1CCCCC1 (stereo partly drawn) [Example 83] | < 2 |

Same assay, conditions: read-out: pIC50 (M3 Binding IC50 classes) (converted)

| Structure (SMILES) | IC50 |
| --- | --- |
| CC(C(=O)O[C@H]1C[N+]2(CC(=O)Nc3ccc(C(F)(F)F)cn3)CCC1CC2)(c1cccs1)N1CCCCC1 (stereo partly drawn) [Example 84, (3R)-1-(2-Oxo-2-{[5-(rifluoromethyl)pyridin-2-yl]amino}ethyl)-3-{[2-piperidin-1-yl-2-(2-thienyl)propanoyl]oxy}-1-azoniabicyclo[2.2.2]octane bromide] | 2 to 10 nM and < 2 nM |
